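1) Cells in 96-well plates. 2) Compound, 48 h, 5 concentrations. 3) Linear interpolation between surrounding doses. 4) Unreached endpoint = highest concentration. At the GI50, growth is halved.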 Activity calls are given as the source filed them. Rule as the data show it: active = GI50 up to about 1.1 µM and inactive = higher.
Columns and labels:
Test in all cases: inhibition of tumour cell growth, NCI panel, 48 h
[1] = test system: KM12
[2] = test system: SK-MEL-28
[3] = test system: SF-268
[4] = test system: DMS-114
[5] = test system: OVCAR-4
[6] = test system: ACHN
[7] = test system: NCI-H226
[8] = test system: COLO 205
[9] = test system: U-251
[10] = test system: A498
[11] = test system: SR
[12] = test system: SN12C
[13] = test system: HT-29
[14] = test system: UACC-62
[15] = test system: 786-0

Measured: GI50

COC(=O)C(Cc1cc(OC)c(OC)c(OC)c1)(NC(=O)c1ccccc1)P(=O)(OC)OC (configuration not stated)
inactive: [1] > 100 µM | [2] > 100 µM | [3] > 100 µM | [4] > 100 µM | [5] > 100 µM | [6] > 100 µM | [7] > 100 µM | [8] > 100 µM | [9] > 100 µM | [10] > 100 µM | [11] > 100 µM | [12] > 100 µM | [13] > 100 µM | [14] > 100 µM

CC(C)N(C(=O)C12C3C4C5(C#N)C3C1(C#N)C5C42I)C(C)C (configuration not stated)
inactive: [1] > 100 µM | [2] > 100 µM | [3] > 100 µM | [4] > 44.4 µM | [5] > 100 µM | [6] > 100 µM | [7] > 100 µM | [15] > 100 µM | [8] > 45.4 µM | [9] > 100 µM | [10] > 100 µM | [11] 13.4 µM | [12] > 100 µM | [13] > 100 µM | [14] > 100 µM

COC(=O)c1ccc(OCc2ccc3nc(OC)c(OC)nc3c2)cc1
inactive: [1] > 100 µM | [2] > 100 µM | [3] > 100 µM | [4] 52.8 µM | [5] > 100 µM | [6] > 100 µM | [7] > 100 µM | [15] > 100 µM | [8] > 100 µM | [9] 49.1 µM | [11] > 100 µM | [12] > 100 µM | [13] > 100 µM

C=CCONC(=O)c1ccc(Cl)cc1
inactive: [1] > 100 µM | [2] > 100 µM | [3] > 100 µM | [4] > 100 µM | [5] > 100 µM | [6] > 100 µM | [15] > 100 µM | [8] > 100 µM | [9] > 100 µM | [10] > 100 µM | [11] > 100 µM | [12] > 100 µM | [13] > 100 µM | [14] > 100 µM

CCN(c1ccc(Br)cc1)c1c(Br)c(=O)nc2ccccn12
inactive: [1] > 100 µM | [2] > 100 µM | [3] > 100 µM | [4] 70.6 µM | [6] > 100 µM | [7] > 100 µM | [15] > 100 µM | [8] > 100 µM | [9] > 100 µM | [10] > 100 µM | [11] > 100 µM | [12] > 100 µM | [13] > 100 µM | [14] 65 µM

Cc1nc(-n2nc(-c3ccccc3)cc2-c2ccccc2)sc1C(=O)CC(=O)C(=O)Nc1ccc(Cl)c(Cl)c1
inactive: [1] 35.9 µM | [3] 48.5 µM | [4] 33.6 µM | [5] 66.4 µM | [6] 25.1 µM | [7] > 100 µM | [15] > 100 µM | [8] 47.3 µM | [9] 78.2 µM | [10] 40.7 µM | [11] > 100 µM | [12] 91.6 µM | [13] 29.9 µM | [14] 45.8 µM

CC[C@@H]1NC(C(=O)OC)Cc2c1[nH]c1ccccc21 (some centres not stated)
inactive: [1] > 100 µM | [2] > 100 µM | [4] > 100 µM | [5] > 100 µM | [6] > 100 µM | [7] > 100 µM | [15] > 100 µM | [8] > 100 µM | [9] > 100 µM | [10] > 100 µM | [11] > 100 µM | [12] > 100 µM | [13] > 100 µM | [14] > 100 µM

O=C1c2cc3c(cc2[C@@H]2NC4CCCC14O2)OCO3 (some centres not stated)
inactive: [1] > 100 µM | [2] > 100 µM | [3] > 100 µM | [4] > 100 µM | [5] > 100 µM | [6] > 100 µM | [7] > 100 µM | [15] > 100 µM | [9] > 100 µM | [10] > 100 µM | [11] > 100 µM | [12] > 100 µM | [13] > 100 µM | [14] > 100 µM

From ChEMBL document CHEMBL1201862, “PubChem BioAssay data set” (2004)
